Reference: the supplement of paper PMC10307832

Columns and labels:
Experiment in all cases: relative viability (nuclei count vs DMSO), 5 days (fraction); higher = more cells survive
[1] = compound: COc1cc2c(Oc3ccc4[nH]c(C)cc4c3F)ncnc2cc1OCCCN1CCCC1 [Cediranib] + NC(=O)Nc1cc(-c2cccc(F)c2)sc1C(=O)N[C@H]1CCCNC1 [AZD7762] (partner 0.2 µM)
In short: (§1)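 Lung cancer cell lines were seeded in 1536-well plates and dosed by pin tool the next day, with either a single drug or a fixed anchor-drug dose combined with five library-drug doses (not always all listed) spaced in √10 steps. Five days later, one step fixed the cells and stained their nuclei (final 0.05% Triton X-100, 1% formaldehyde, 1 ug/ml Hoechst), and nuclei were counted on 4× images. Relative viability is the nuclei count in treated wells divided by the count in vehicle wells, and each value is the median of duplicate plates.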

[2] = compound: Nc1ncn([C@H]2C[C@H](O)[C@@H](CO)O2)c(=O)n1 [Decitabine] + COc1cc2c(Oc3ccc(NC(=O)C4(C(=O)Nc5ccc(F)cc5)CC4)cc3F)ccnc2cc1OCCCN1CCOCC1 [Foretinib] (partner 0.25 µM)
In short: as §1

[3] = compound: Nc1ncn([C@H]2C[C@H](O)[C@@H](CO)O2)c(=O)n1 [Decitabine] + C[C@]1(O)C[C@@H](c2nc(-c3ccc4ccc(-c5ccccc5)nc4c3)c3c(N)nccn32)C1 [Linsitinib] (partner 1 µM)
In short: as §1

[4] = compound: O=C(C[C@H]1NCCC[C@@H]1O)Cn1cnc2cc(Br)c(Cl)cc2c1=O (racemic) [Halofuginone] + C[C@@H](Oc1cc(-c2cnn(C3CCNCC3)c2)cnc1N)c1c(Cl)ccc(F)c1Cl [Crizotinib] (partner 1 µM)
In short: as §1

| Cell Line | relative viability ([1]; first compound 0.04 µM) | relative viability ([1]; first compound 0.1265 µM) | relative viability ([1]; first compound 0.4 µM) | relative viability ([1]; first compound 1.265 µM) | relative viability ([1]; first compound 4 µM) | relative viability ([2]; first compound 0.04 µM) | relative viability ([2]; first compound 0.1265 µM) | relative viability ([2]; first compound 0.4 µM) | relative viability ([2]; first compound 1.265 µM) | relative viability ([2]; first compound 4 µM) | relative viability ([3]; first compound 0.04 µM) | relative viability ([3]; first compound 0.1265 µM) | relative viability ([3]; first compound 0.4 µM) | relative viability ([3]; first compound 1.265 µM) | relative viability ([3]; first compound 4 µM) | relative viability ([4]; first compound 0.001 µM) | relative viability ([4]; first compound 0.003162 µM) | relative viability ([4]; first compound 0.01 µM) | relative viability ([4]; first compound 0.03162 µM) | relative viability ([4]; first compound 0.1 µM) |
| --- | --- | --- | --- | --- | --- | --- | --- | --- | --- | --- | --- | --- | --- | --- | --- | --- | --- | --- | --- | --- |
| HCC-78 | 0.719 | 1.01 | 0.659 | 0.532 | 0.645 | 0.648 | 0.58 | 0.588 | 0.455 | 0.433 | 0.538 | 0.545 | 0.407 | 0.371 | 0.319 | 0.396 | 0.356 | 0.314 | 0.341 | 0.237 |
| HCC-366 | 0.41 | 0.314 | 0.181 | 0.376 | 0.266 | 0.825 | 0.743 | 0.448 | 0.211 | 0.128 | 0.535 | 0.743 | 0.339 | 0.14 | 0.111 | 0.759 | 0.515 | 0.607 | 0.544 | 0.0412 |
| IA-LM |  |  |  |  |  | 0.543 | 0.502 | 0.282 | 0.204 | 0.108 | 0.281 | 0.461 | 0.174 | 0.155 | 0.129 | 0.845 | 0.899 | 0.768 | 0.384 | 0.0479 |
| NCI-H520 |  |  |  |  |  | 0.732 | 0.691 | 0.584 | 0.387 | 0.343 | 1.13 | 0.916 | 0.633 | 0.333 | 0.324 | 0.764 | 0.808 | 0.749 | 0.693 | 0.316 |
| NCI-H522 | 0.84 | 0.643 | 0.887 | 0.729 | 0.744 |  |  |  |  |  |  |  |  |  |  |  |  |  |  |  |
| NCI-H661 |  |  |  |  |  | 1.02 | 0.966 | 0.777 | 0.6 | 0.554 | 0.566 | 0.502 | 0.406 | 0.248 | 0.267 | 1.1 |  | 0.911 | 0.921 | 0.893 |
| NCI-H1299 |  |  |  |  |  | 1.09 | 1.13 | 1.03 | 1.03 | 1.01 | 0.976 | 1.06 | 1.03 | 0.918 | 0.802 | 1.03 | 1.01 | 0.959 | 0.873 | 0.397 |
| NCI-H1395 | 0.382 | 0.404 | 0.378 | 0.402 | 0.392 | 0.798 | 0.801 | 0.687 | 0.586 | 0.55 | 0.768 | 0.938 | 0.597 | 0.63 | 0.509 |  |  |  |  |  |
| NCI-H1563 |  |  |  |  |  | 0.984 | 0.886 | 1.14 | 0.949 | 0.917 | 1.33 | 1.21 | 1.41 | 1.23 | 1.17 | 0.868 | 0.835 | 0.891 | 0.555 | 0.452 |
| NCI-H1623 |  |  |  |  |  | 0.706 | 0.822 | 0.657 | 0.53 | 0.549 |  |  |  |  |  |  |  |  |  |  |
| NCI-H1648 | 0.586 | 0.533 | 0.636 | 0.514 | 0.72 |  |  |  |  |  |  |  |  |  |  |  |  |  |  |  |
| NCI-H1650 |  |  |  |  |  | 0.903 | 0.855 | 0.553 | 0.512 | 0.301 |  |  |  |  |  | 1.05 | 1.05 | 0.951 | 0.823 | 0.59 |
| NCI-H1792 |  | 0.922 | 0.554 | 0.658 | 0.838 |  |  |  |  |  | 0.643 | 0.568 | 0.531 | 0.378 | 0.333 | 1.04 | 0.973 | 0.985 | 0.959 | 1.03 |
| NCI-H1793 | 0.521 | 0.492 | 0.418 | 0.329 | 0.394 | 0.631 | 0.641 | 0.533 | 0.351 | 0.406 | 0.848 | 0.947 | 0.854 | 0.5 | 0.434 |  |  |  |  |  |
| NCI-H2009 |  |  |  |  |  | 1.21 | 0.808 | 0.627 | 0.494 | 0.438 | 1.08 | 0.801 | 0.601 | 0.383 | 0.33 | 1.15 | 1.09 | 1.06 | 0.923 | 0.668 |
| NCI-H2023 |  |  |  |  |  | 0.649 | 0.617 | 0.369 | 0.265 | 0.189 | 0.588 | 0.524 | 0.406 | 0.237 | 0.195 | 0.847 | 0.649 | 0.701 | 0.493 | 0.0689 |
| NCI-H2170 | 0.871 |  | 0.743 | 0.611 | 1.1 | 0.87 | 0.85 | 0.767 | 0.437 | 0.393 |  |  |  |  |  | 1.27 | 1.34 | 1.21 | 1.21 | 1 |
| NCI-H2228 |  |  |  |  |  | 0.593 | 0.532 | 0.352 | 0.273 | 0.207 | 0.377 | 0.589 | 0.613 | 0.356 | 0.291 | 0.45 | 0.658 | 0.411 | 0.218 | 0.177 |
| NCI-H2342 | 0.502 | 0.635 | 0.421 | 0.402 | 0.464 | 1.29 | 1.03 | 1.1 | 0.674 | 0.568 |  |  |  |  |  |  |  |  |  |  |
| SK-LU-1 |  |  |  |  |  | 0.686 | 0.674 | 0.376 | 0.356 | 0.356 | 0.76 | 0.744 | 0.487 | 0.545 | 0.45 | 1.25 | 0.978 | 0.836 | 0.927 | 0.325 |
| SK-MES-1 |  |  |  |  |  | 0.688 | 0.758 | 0.697 | 0.407 | 0.309 | 0.928 | 0.845 | 0.554 | 0.437 | 0.339 | 1.02 | 1.01 | 0.863 | 0.778 | 0.302 |
| SW 900 | 0.839 | 0.536 | 0.594 | 0.621 | 0.835 | 0.489 | 0.305 | 0.206 | 0.167 | 0.202 |  |  |  |  |  |  |  |  |  |  |
| SW 1573 |  |  |  |  |  | 0.769 | 0.891 | 0.793 | 0.591 | 0.49 | 0.666 | 0.793 | 0.697 | 0.408 | 0.392 | 1.03 | 0.915 | 0.803 | 0.574 | 0.195 |
